{
  "source": "ChEMBL document CHEMBL1201862",
  "about": "“PubChem BioAssay data set” (2004)",
  "test_in_all_cases": "inhibition of tumour cell growth, NCI panel, 48 h",
  "key": {"786-0": {"test_system": "786-0"}, "A498": {"test_system": "A498"}, "A549": {"test_system": "A549"}, "ACHN": {"test_system": "ACHN"}, "BT-549": {"test_system": "BT-549"}, "CAKI-1": {"test_system": "CAKI-1"}, "CCRF-CEM": {"test_system": "CCRF-CEM"}, "COLO 205": {"test_system": "COLO 205"}, "DLD-1": {"test_system": "DLD-1"}, "DMS-114": {"test_system": "DMS-114"}, "DMS-273": {"test_system": "DMS-273"}, "DU-145": {"test_system": "DU-145"}, "EKVX": {"test_system": "EKVX"}, "HCC 2998": {"test_system": "HCC 2998"}, "HCT-116": {"test_system": "HCT-116"}, "HCT-15": {"test_system": "HCT-15"}, "HL-60": {"test_system": "HL-60"}, "HOP-18": {"test_system": "HOP-18"}, "HOP-62": {"test_system": "HOP-62"}, "HOP-92": {"test_system": "HOP-92"}, "HT-29": {"test_system": "HT-29"}, "Hs-578T": {"test_system": "Hs-578T"}, "IGROV-1": {"test_system": "IGROV-1"}, "K562": {"test_system": "K562"}, "KM-20L2": {"test_system": "KM-20L2"}, "KM12": {"test_system": "KM12"}, "LOX IMVI": {"test_system": "LOX IMVI"}, "LXFL 529": {"test_system": "LXFL 529"}, "M14": {"test_system": "M14"}, "M19-MEL": {"test_system": "M19-MEL"}, "MCF7": {"test_system": "MCF7"}, "MDA-MB-231": {"test_system": "MDA-MB-231"}, "MDA-MB-435": {"test_system": "MDA-MB-435"}, "MDA-N": {"test_system": "MDA-N"}, "MOLT-4": {"test_system": "MOLT-4"}, "Malme-3M": {"test_system": "Malme-3M"}, "NCI-H226": {"test_system": "NCI-H226"}, "NCI-H23": {"test_system": "NCI-H23"}, "NCI-H460": {"test_system": "NCI-H460"}, "NCI-H522": {"test_system": "NCI-H522"}, "NCI/ADR-RES": {"test_system": "NCI/ADR-RES"}, "OVCAR-3": {"test_system": "OVCAR-3"}, "OVCAR-4": {"test_system": "OVCAR-4"}, "OVCAR-5": {"test_system": "OVCAR-5"}, "OVCAR-8": {"test_system": "OVCAR-8"}, "PC-3": {"test_system": "PC-3"}, "RPMI-8226": {"test_system": "RPMI-8226"}, "RXF 393": {"test_system": "RXF 393"}, "RXF 631": {"test_system": "RXF 631"}, "SF-268": {"test_system": "SF-268"}, "SF-295": {"test_system": "SF-295"}, "SF-539": {"test_system": "SF-539"}, "SK-MEL-28": {"test_system": "SK-MEL-28"}, "SK-MEL-2": {"test_system": "SK-MEL-2"}, "SK-MEL-5": {"test_system": "SK-MEL-5"}, "SK-OV-3": {"test_system": "SK-OV-3"}, "SN12C": {"test_system": "SN12C"}, "SNB-19": {"test_system": "SNB-19"}, "SNB-75": {"test_system": "SNB-75"}, "SNB-78": {"test_system": "SNB-78"}, "SR": {"test_system": "SR"}, "SW-620": {"test_system": "SW-620"}, "T47D": {"test_system": "T47D"}, "TK-10": {"test_system": "TK-10"}, "U-251": {"test_system": "U-251"}, "UACC-257": {"test_system": "UACC-257"}, "UACC-62": {"test_system": "UACC-62"}, "UO-31": {"test_system": "UO-31"}, "XF498": {"test_system": "XF498"}},
  "note": "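Cells were grown in 96-well plates and exposed to each compound for 48 hours at five concentrations; endpoints were interpolated linearly between bracketing concentrations, or set to the highest concentration if not reached. GI50 = concentration required for 50% inhibition of growth.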 Activity calls are given as the source filed them. No stated cut-off is given here; in the data, active = GI50 up to about 1.1 µM and inactive = higher.",
  "data": [
    {"smiles": "C=C(CCCCCCCCC)CC(=O)SCCNC(=O)CCNC(=O)C(O)C(C)(C)COP(=O)(O)OP(=O)(O)OCC1OC(n2cnc3c(N)ncnc32)C(O)C1OP(=O)(O)O", "note": "(centres undefined)", "values": [
      {"measurement": "GI50", "setting": "786-0", "value": "69.5 µM (inactive)"},
      {"measurement": "GI50", "setting": "A498", "value": "> 100 µM (inactive)"},
      {"measurement": "GI50", "setting": "A549", "value": "> 92.5 µM (inactive)"},
      {"measurement": "GI50", "setting": "ACHN", "value": "> 100 µM (inactive)"},
      {"measurement": "GI50", "setting": "BT-549", "value": "> 60.8 µM (inactive)"},
      {"measurement": "GI50", "setting": "CAKI-1", "value": "> 100 µM (inactive)"},
      {"measurement": "GI50", "setting": "CCRF-CEM", "value": "> 70.6 µM (inactive)"},
      {"measurement": "GI50", "setting": "COLO 205", "value": "> 100 µM (inactive)"},
      {"measurement": "GI50", "setting": "DLD-1", "value": "42.9 µM (inactive)"},
      {"measurement": "GI50", "setting": "DMS-114", "value": "55.3 µM (inactive)"},
      {"measurement": "GI50", "setting": "DMS-273", "value": "21 µM (inactive)"},
      {"measurement": "GI50", "setting": "DU-145", "value": "> 100 µM (inactive)"},
      {"measurement": "GI50", "setting": "EKVX", "value": "51.2 µM (inactive)"},
      {"measurement": "GI50", "setting": "HCC 2998", "value": "52.8 µM (inactive)"},
      {"measurement": "GI50", "setting": "HCT-116", "value": "45.5 µM (inactive)"},
      {"measurement": "GI50", "setting": "HCT-15", "value": 50.1, "unit": "µM"},
      {"measurement": "GI50", "setting": "HL-60", "value": "36.1 µM (inactive)"},
      {"measurement": "GI50", "setting": "HOP-18", "value": "29.4 µM (inactive)"},
      {"measurement": "GI50", "setting": "HOP-62", "value": "40.9 µM (inactive)"},
      {"measurement": "GI50", "setting": "HOP-92", "value": "75.5 µM (inactive)"},
      {"measurement": "GI50", "setting": "HT-29", "value": "68.2 µM (inactive)"},
      {"measurement": "GI50", "setting": "Hs-578T", "value": "> 64.4 µM (inactive)"},
      {"measurement": "GI50", "setting": "IGROV-1", "value": "98.2 µM (inactive)"},
      {"measurement": "GI50", "setting": "K562", "value": "> 31.6 µM (inactive)"},
      {"measurement": "GI50", "setting": "KM-20L2", "value": "> 100 µM (inactive)"},
      {"measurement": "GI50", "setting": "KM12", "value": "52.6 µM (inactive)"},
      {"measurement": "GI50", "setting": "LOX IMVI", "value": "38.3 µM (inactive)"},
      {"measurement": "GI50", "setting": "LXFL 529", "value": "56.2 µM (inactive)"},
      {"measurement": "GI50", "setting": "M14", "value": "25.5 µM (inactive)"},
      {"measurement": "GI50", "setting": "M19-MEL", "value": "29.8 µM (inactive)"},
      {"measurement": "GI50", "setting": "MCF7", "value": "> 87.5 µM (inactive)"},
      {"measurement": "GI50", "setting": "MDA-MB-231", "value": "> 77.8 µM (inactive)"},
      {"measurement": "GI50", "setting": "MDA-MB-435", "value": "26.6 µM (inactive)"},
      {"measurement": "GI50", "setting": "MDA-N", "value": "32.1 µM (inactive)"},
      {"measurement": "GI50", "setting": "MOLT-4", "value": "> 57.1 µM (inactive)"},
      {"measurement": "GI50", "setting": "Malme-3M", "value": "> 100 µM (inactive)"},
      {"measurement": "GI50", "setting": "NCI-H226", "value": "> 100 µM (inactive)"},
      {"measurement": "GI50", "setting": "NCI-H23", "value": "> 100 µM (inactive)"},
      {"measurement": "GI50", "setting": "NCI-H460", "value": "35.4 µM (inactive)"},
      {"measurement": "GI50", "setting": "NCI-H522", "value": "11.8 µM (inactive)"},
      {"measurement": "GI50", "setting": "NCI/ADR-RES", "value": "> 100 µM (inactive)"},
      {"measurement": "GI50", "setting": "OVCAR-3", "value": "77.8 µM (inactive)"},
      {"measurement": "GI50", "setting": "OVCAR-4", "value": "60.4 µM (inactive)"},
      {"measurement": "GI50", "setting": "OVCAR-5", "value": "> 100 µM (inactive)"},
      {"measurement": "GI50", "setting": "OVCAR-8", "value": "58.2 µM (inactive)"},
      {"measurement": "GI50", "setting": "PC-3", "value": "56.4 µM (inactive)"},
      {"measurement": "GI50", "setting": "RPMI-8226", "value": "23.8 µM (inactive)"},
      {"measurement": "GI50", "setting": "RXF 393", "value": "> 71.1 µM (inactive)"},
      {"measurement": "GI50", "setting": "RXF 631", "value": "55.2 µM (inactive)"},
      {"measurement": "GI50", "setting": "SF-268", "value": "8.73 µM (inactive)"},
      {"measurement": "GI50", "setting": "SF-295", "value": "57.4 µM (inactive)"},
      {"measurement": "GI50", "setting": "SF-539", "value": "51.3 µM (inactive)"},
      {"measurement": "GI50", "setting": "SK-MEL-28", "value": "10.4 µM (inactive)"},
      {"measurement": "GI50", "setting": "SK-MEL-2", "value": "60.8 µM (inactive)"},
      {"measurement": "GI50", "setting": "SK-MEL-5", "value": "31.6 µM (inactive)"},
      {"measurement": "GI50", "setting": "SK-OV-3", "value": "> 100 µM (inactive)"},
      {"measurement": "GI50", "setting": "SN12C", "value": "> 84.3 µM (inactive)"},
      {"measurement": "GI50", "setting": "SNB-19", "value": "> 71.6 µM (inactive)"},
      {"measurement": "GI50", "setting": "SNB-75", "value": "30 µM (inactive)"},
      {"measurement": "GI50", "setting": "SNB-78", "value": "25.5 µM (inactive)"},
      {"measurement": "GI50", "setting": "SR", "value": "36.4 µM (inactive)"},
      {"measurement": "GI50", "setting": "SW-620", "value": "> 100 µM (inactive)"},
      {"measurement": "GI50", "setting": "T47D", "value": "> 76.9 µM (inactive)"},
      {"measurement": "GI50", "setting": "TK-10", "value": "> 100 µM (inactive)"},
      {"measurement": "GI50", "setting": "U-251", "value": "49.9 µM (inactive)"},
      {"measurement": "GI50", "setting": "UACC-257", "value": "48.1 µM (inactive)"},
      {"measurement": "GI50", "setting": "UACC-62", "value": "21.1 µM (inactive)"},
      {"measurement": "GI50", "setting": "UO-31", "value": "99.1 µM (inactive)"},
      {"measurement": "GI50", "setting": "XF498", "value": "50 µM (inactive)"}
    ]}
  ]
}
